Data from PubChem BioAssay (NCI).
Values joined by “and” are separate entries in the source; they are usually repeats but may differ in a detail not shown here. Equal values may be shown once.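 Tested at 5 concentrations; 48 h exposure; 96-well plates; endpoints linearly interpolated, else capped at highest concentration. GI50 marks 50% less growth. TGI marks complete inhibition of growth.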

How the values were obtained:
Assay in all cases: inhibition of tumour cell growth, NCI panel, 48 h
SK-OV-3 ovarian = test system: SK-OV-3 ovarian
SF-539 CNS = test system: SF-539 CNS
COLO 205 colon = test system: COLO 205 colon
SK-MEL-5 melanoma = test system: SK-MEL-5 melanoma
MALME-3M melanoma = test system: MALME-3M melanoma
UACC-257 melanoma = test system: UACC-257 melanoma
SW-620 colon = test system: SW-620 colon
RPMI-8226 leukemia = test system: RPMI-8226 leukemia
HS 578T breast = test system: HS 578T breast
UACC-62 melanoma = test system: UACC-62 melanoma

SMILES | TGI (SK-OV-3 ovarian) [µM] | TGI (SF-539 CNS) [µM] | GI50 (COLO 205 colon) | TGI (COLO 205 colon) | TGI (SK-MEL-5 melanoma) [µM] | GI50 (MALME-3M melanoma) | TGI (MALME-3M melanoma) | TGI (UACC-257 melanoma) [µM] | TGI (SW-620 colon) [µM] | GI50 (RPMI-8226 leukemia) | TGI (RPMI-8226 leukemia) [µM] | TGI (HS 578T breast) [µM] | TGI (UACC-62 melanoma) [µM] | GI50 (SK-OV-3 ovarian) [µM] | GI50 (SF-539 CNS) [µM] | GI50 (SK-MEL-5 melanoma) [µM] | GI50 (UACC-257 melanoma) [µM] | GI50 (SW-620 colon) [µM] | GI50 (HS 578T breast) [µM] | GI50 (UACC-62 melanoma) [µM]
COc1ccc(/C=C/C(=O)OC2CC34CCNC35CC(OC5(OC)C2OC)c2ccc(OC)c(O)c24)cc1O (configuration not stated) | > 100 | > 100 | 18.4 µM and > 100 µM | 35.7 µM and > 100 µM | > 100 | 11.3 µM and > 100 µM | 50.9 µM and > 100 µM | > 100 | > 100 | 34.6 µM and > 100 µM | > 100 | > 100 | > 100 | – | – | – | – | – | – | –
CC[C@]1(O)CC2CN(CCc3c([nH]c4ccccc34)C(C(=O)OC)(c3cc4c(cc3OC)N(C=O)[C@H]3[C@@](O)(C(=O)OC)[C@H](OC(C)=O)[C@]5(CC)[C@@H]6C[C@@H]6CN6CC[C@]43[C@@H]65)C2)C1 (some centres not stated) | < 0.00325 | < 0.00325 | < 0.00325 µM | < 0.00325 µM | 0.0119 | 0.104 µM | 17.9 µM | 4.37 | > 32.5 | < 0.00325 µM | 0.0579 | > 32.5 | > 21 | < 0.00325 | < 0.00325 | < 0.00325 | < 0.00325 | < 0.00325 | < 0.00325 | < 0.00325
CCN(CC)CCOc1ccc2c(-c3ccccc3)c(-c3ccc(OC)cc3)c(=O)oc2c1 | 23 | 19.1 | 1.85 µM | 3.72 µM | 3.55 | 1.28 µM | 3.08 µM | 7 | 5.76 | 2.56 µM | 11.8 | 15.5 | 15 | 11 | 5.48 | 1.77 | 2.47 | 2.14 | 3.19 | 3.82
CCCCCCCCCCCCCCCC(=O)OCC1OC(OCCCC)[C@H](O[C@@H]2OC(C)C(OC(=O)CCC)C(O)C2O)C(O)C1O (some centres not stated) | 16.1 | 36.8 | 17.8 µM | 37.2 µM | 34.2 | 16.7 µM | 42.4 µM | 61.4 | 44.5 | 16.8 µM | 33.4 | 44.2 | 23.6 | 5.12 | 21 | 17.7 | 22.6 | 21.9 | 16.2 | 10.2
Oc1ccc(/C=N/NC(=S)Nc2ccccc2)nc1 | 32.6 | 6.19 | 3.31 µM | > 100 µM | 3.36 | 2.19 µM | 30.6 µM | 6.84 | > 100 | 3.44 µM | > 100 | > 100 | 4.95 | 0.748 | 0.851 | 0.754 | 2.18 | 2.07 | 9.84 | 1.55
Cc1cc2c3c(nc4ccccc42)C(=O)c2cccnc2-c3n1 | 1.07 | 2.21 | 1.13 µM | 2.45 µM | 0.354 | 0.426 µM | 1.39 µM | 0.55 | 1.01 | 0.099 µM | 0.46 | > 21.9 | 0.936 | 0.25 | 0.495 | 0.0808 | 0.169 | 0.17 | 1.69 | 0.284
O=C(NNC1=NS(=O)(=O)c2ccccc2N1c1ccccc1)c1cnccn1 | > 100 | > 100 | > 100 µM | > 100 µM | > 100 | > 100 µM | > 100 µM | > 100 | > 100 | > 100 µM | > 100 | > 100 | > 100 | > 100 | > 100 | > 100 | > 100 | > 100 | > 100 | > 100
N#Cc1ncc(-c2ccc(C(F)(F)F)cc2)c(NC2CCCCCC2)n1 | > 100 | > 100 | 13.2 µM | 62.1 µM | > 100 | > 100 µM | > 100 µM | > 100 | > 100 | 4.99 µM | > 100 | > 100 | > 100 | > 100 | > 100 | 33.5 | 13.7 | 8.64 | 22.4 | 24.5
O=C(O)c1cc(-c2ccc(-c3ccccc3)cc2)nc2cc3ccccc3cc12 | > 100 | > 100 | – | > 100 µM | > 100 | – | > 100 µM | > 100 | > 100 | – | > 100 | > 100 | > 100 | – | – | – | – | – | – | –
CN(C)Cc1ccc(O)c(CN(C)C)n1 | > 100 | > 100 | – | > 100 µM | > 100 | – | > 100 µM | > 100 | > 100 | – | > 100 | > 100 | > 100 | – | – | – | – | – | – | –
Cn1cc(Nc2nccc(-c3ccc4c(c3)CN(C3COC3)CC[C@H]4NC(=O)c3cn(C(C)(C)C)nn3)n2)cn1 | > 100 | > 100 | 30.6 µM | > 100 µM | > 100 | 38 µM | > 100 µM | > 100 | > 100 | > 100 µM | > 100 | > 100 | > 100 | 62.5 | 99.1 | 26.3 | > 100 | > 100 | 29.7 | 23.1
Cc1ccc(/C=C(/C#N)n2nnc3cccc(F)c32)cc1 | 55.1 | 0.657 | 0.387 µM | 3.3 µM | 4.22 | 0.488 µM | 17.6 µM | 39.9 | 5.53 | 0.391 µM | – | > 36.8 | 11.1 | 0.931 | 0.247 | 0.423 | 1.13 | 0.354 | 0.373 | 0.32
O=C(Nc1nc2ccc(OC(F)(F)F)cc2s1)c1ccc(F)cc1 | 8.44 | 6.95 | 2.11 µM | 4.11 µM | 6.6 | 2.93 µM | 8.06 µM | 26.7 | > 100 | 2.52 µM | 8.08 | > 100 | 50.3 | 2.6 | 2.26 | 2.45 | 3.57 | 3.74 | 3.12 | 3.59
